In patent US9604961B2, “Histone demethylase inhibitors” (Celgene Quanticel Research, Inc., priority 2012, dated 2017):
Like-named read-outs stand apart in the source and are kept apart here.

Key:
[1] = molecular target: Jarid1A (Homo sapiens (Human), UniProt P29375); assay: Jarid1A in vitro enzyme inhibition assay (TR-FRET); type: biochemical
Excerpt: The enzymatic assay of Jarid1A activity is based upon Time Resolved-Fluorescence Resonance Energy Transfer (TR-FRET) detection.

[2] = molecular target: Jarid1B (Homo sapiens (Human), UniProt Q9UGL1); assay: Jarid1B in vitro enzyme inhibition assay (TR-FRET); type: biochemical
Method: This assay determines the ability of a test compound to inhibit Jarid1A, Jarid1B, JMJD2C, and JMJD2A demethylase activity.
The ability of test compounds to inhibit the activity of Jarid1B was determined in 384-well plate format under the following reaction conditions: 0.8 nM Jarid1B, 300 nM H3K4me3-biotin labeled peptide (Anaspec cat #64357), 2 μM alpha-ketoglutaric acid in assay buffer of 50 mM HEPES, pH7.3, 0.005% Brij35, 0.5 mM TCEP, 0.2 mg/ml BSA, 50 μM sodium L-ascorbate, and 2 μM ammonium iron(II) sulfate. Reaction product was determined quantitatively by TR-FRET after the addition of detection reagent Phycolink Streptavidin-allophycocyanin (Prozyme) and Europium-anti-mono- or di-methylated histone H3 lysine 4 (H3K4me1-2) antibody (PerkinElmer) in the presence of 5 mM EDTA in LANCE detection buffer (PerkinElmer) at a final concentration of 25 nM and 1 nM, respectively.
The assay reaction was initiated by the following: 2 μl of the mixture of 900 nM H3K4me3-biotin labeled peptide and 6 μM alpha-ketoglutaric acid with 2 μl of 11-point serial diluted inhibitor in 3% DMSO was added to each well of the plate, followed by the addition of 2 μl of 2.4 nM Jarid1B to initiate the reaction. The reaction mixture was incubated at room temperature for 30 minutes, and terminated by the addition of 6 μl of 5 mM EDTA in LANCE detection buffer containing 50 nM Phycolink Streptavidin-allophycocyanin and 2 nM Europium-anti-H3K4me1-2 antibody. Plates were read by EnVisionMultilabel Reader in TR-FRET mode (excitation at 320 nm, emission at 615 nm and 665 nm) after 1 hour incubation at room temperature. A ratio was calculated (665/615) for each well and fitted to determine inhibition constant (IC50).

[3] = molecular target: JMJD2C (Homo sapiens (Human), UniProt Q9H3R0); assay: JMJD2C in vitro enzyme inhibition assay (TR-FRET); type: biochemical
[4] = system: KDM5A/B; assay: In vitro cell-based assay: quantitative immuno-blotting of tri-methyl H3K4 in ZR-75-1 breast cancer cells; settings: 72 hours exposure, read-out: Cellular IC50
Excerpt: This quantitative immuno-blotting assay measures the amount tri-methylated histone H3 at amino acid Lysine number 4, a specific substrate […] of the direct enzymatic activity of the histone demethylases KDM5A and KDM5B from extracts of the ZR-75-1 breast cancer cell line.
This assay is a fluorometric immunoassay for the quantification of tri-methyl H3K4 extracted from cells treated with test compound and is used as a measure of the cellular inhibition of KDM5A/B.
ZR-75-1 (PTEN null, ER+) breast cancer cells numbering 50,000 (ATCC) were seeded into each well of a 96-well tissue culture treated plate and then exposed to an 11 point dilution of test compound with final concentration ranges of test compound ranging from […] to 10 nM. […] Extracts were prepared containing all of the cellular histone material using detergent based lysis and sonication methods. These lysates were subsequently normalized for total protein content using a colorimetric bicinchonic acid assay (MicroBCA Pierce/Thermo Scientific). Normalized cell extracts were then subjected to typical immuno-blotting procedures using NuPage reagents (Life Technologies). Electrophoretically separated histones were then transferred and immobilized using polyvinylidene difluoride membrane (Immobilon-FL Millipore). The amount of tri-methylated lysine 4 of histone H3 was detected using an antibody specific to the tri-methylated state (Cell Signaling Technologies) and quantified on an infrared imager using a densitometry software package (Odyssey CLx, Image Studio, Li-Cor). This background subtracted densitometry value was reported as a ration of the GAPDH amount for that sample and then calculated as a percent of the DMSO treated sample. The software package XL-fit (IDBS) was then used to calculate a relative IC50 value for the dilution series of a given test compound according to the equation: fit=(D+((Vmax*(x^n))/((x^n)+(Km^n)))).

[5] = molecular target: FBXL10 (Homo sapiens (Human), UniProt Q8NHM5); assay: FBXL10 in vitro enzyme inhibition assay (AlphaScreen); type: biochemical
Method: Reaction product was determined quantitatively by AlphaScreen detection after the addition of detection reagents anti-H3K36me1 antibody, AlphaScreen® Streptavidin-coated Donor beads, and AlphaScreen® Protein A Acceptor beads in 50 mM HEPES, pH7.3, 10 mM NaCl, 0.005% Brij35, 5 mM EDTA, 2 mg/ml BSA to final 10 μg/ml beads.
Plates were incubated at room temperature for 40 minutes, followed by addition of 3 μl of 50 μg/ml AlphaScreen® Streptavidin-coated Donor beads and AlphaScreen® Protein A Acceptor beads in 50 mM HEPES, pH7.3, 10 mM NaCl, 0.005% Brij35, 5 mM EDTA, 2 mg/ml BSA. Plates were read by EnVisionMultilabel Reader in AlphaScreen mode after a minimum of 2 hour or up to overnight incubation at room temperature. The AlphaScreen signal for each well was used to determine inhibition constant (IC50).

[6] = molecular target: JMJD2A (Homo sapiens (Human), UniProt O75164); assay: JMJD2A in vitro enzyme inhibition assay (TR-FRET); settings: read-out: JMJD2A IC50
Chain of JMJD2A (O75164 1-350): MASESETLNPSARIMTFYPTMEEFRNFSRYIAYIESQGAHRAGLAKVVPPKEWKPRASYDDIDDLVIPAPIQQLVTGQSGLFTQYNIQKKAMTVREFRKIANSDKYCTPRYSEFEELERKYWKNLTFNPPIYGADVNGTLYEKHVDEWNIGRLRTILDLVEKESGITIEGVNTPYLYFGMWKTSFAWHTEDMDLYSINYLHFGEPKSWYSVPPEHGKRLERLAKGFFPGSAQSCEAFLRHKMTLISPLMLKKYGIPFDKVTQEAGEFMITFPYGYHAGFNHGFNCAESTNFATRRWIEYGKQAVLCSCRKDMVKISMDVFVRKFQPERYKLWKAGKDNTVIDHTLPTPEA

Chain of Jarid1B (Q9UGL1 2-751): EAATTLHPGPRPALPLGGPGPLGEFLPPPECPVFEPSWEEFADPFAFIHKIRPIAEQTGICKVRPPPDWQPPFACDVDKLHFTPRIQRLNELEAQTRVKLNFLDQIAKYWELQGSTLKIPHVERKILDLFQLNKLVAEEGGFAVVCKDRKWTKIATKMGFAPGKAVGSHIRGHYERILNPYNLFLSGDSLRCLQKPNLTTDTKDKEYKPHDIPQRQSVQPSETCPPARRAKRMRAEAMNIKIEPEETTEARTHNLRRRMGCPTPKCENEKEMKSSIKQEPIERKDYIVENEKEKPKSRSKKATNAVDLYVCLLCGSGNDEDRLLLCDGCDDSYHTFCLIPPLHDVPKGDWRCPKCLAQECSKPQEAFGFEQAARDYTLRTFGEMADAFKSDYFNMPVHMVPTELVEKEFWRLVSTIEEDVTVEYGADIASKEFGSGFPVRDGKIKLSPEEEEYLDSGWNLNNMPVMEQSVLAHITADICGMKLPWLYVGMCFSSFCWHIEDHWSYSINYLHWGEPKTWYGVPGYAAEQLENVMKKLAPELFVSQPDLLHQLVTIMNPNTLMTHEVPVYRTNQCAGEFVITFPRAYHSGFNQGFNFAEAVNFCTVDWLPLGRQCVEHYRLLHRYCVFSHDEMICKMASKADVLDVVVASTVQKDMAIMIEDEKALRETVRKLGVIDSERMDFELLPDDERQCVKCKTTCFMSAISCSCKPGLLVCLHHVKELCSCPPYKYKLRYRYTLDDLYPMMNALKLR
Chain of Jarid1A (P29375 1-1090): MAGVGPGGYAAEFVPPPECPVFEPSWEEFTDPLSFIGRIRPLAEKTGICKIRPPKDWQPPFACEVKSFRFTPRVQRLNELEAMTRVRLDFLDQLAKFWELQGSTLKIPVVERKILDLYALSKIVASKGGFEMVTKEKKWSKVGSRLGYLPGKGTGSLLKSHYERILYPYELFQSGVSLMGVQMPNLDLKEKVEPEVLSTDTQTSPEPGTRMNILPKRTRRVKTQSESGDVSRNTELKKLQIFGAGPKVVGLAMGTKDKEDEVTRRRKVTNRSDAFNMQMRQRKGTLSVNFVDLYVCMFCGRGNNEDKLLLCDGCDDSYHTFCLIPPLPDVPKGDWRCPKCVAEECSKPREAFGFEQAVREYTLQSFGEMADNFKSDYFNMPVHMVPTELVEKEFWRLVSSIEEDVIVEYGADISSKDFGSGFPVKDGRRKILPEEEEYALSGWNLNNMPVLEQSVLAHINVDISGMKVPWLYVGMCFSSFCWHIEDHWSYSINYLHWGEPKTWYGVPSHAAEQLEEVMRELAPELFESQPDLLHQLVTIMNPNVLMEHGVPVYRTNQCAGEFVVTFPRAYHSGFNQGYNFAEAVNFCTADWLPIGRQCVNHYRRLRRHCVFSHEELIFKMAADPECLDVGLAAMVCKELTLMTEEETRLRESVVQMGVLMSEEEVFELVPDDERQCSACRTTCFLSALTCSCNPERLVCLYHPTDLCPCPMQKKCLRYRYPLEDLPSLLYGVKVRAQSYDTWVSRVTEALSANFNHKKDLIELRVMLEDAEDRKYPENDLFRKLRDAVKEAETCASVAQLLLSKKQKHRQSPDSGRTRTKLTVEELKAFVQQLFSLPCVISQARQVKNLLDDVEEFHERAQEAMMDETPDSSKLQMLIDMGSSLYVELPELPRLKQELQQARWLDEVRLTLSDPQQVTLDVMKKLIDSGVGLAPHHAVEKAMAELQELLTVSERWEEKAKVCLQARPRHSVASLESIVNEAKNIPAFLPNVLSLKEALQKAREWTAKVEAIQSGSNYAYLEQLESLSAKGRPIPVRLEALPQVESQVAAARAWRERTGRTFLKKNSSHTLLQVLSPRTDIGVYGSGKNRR
Chain of FBXL10 (Q8NHM5 1-650): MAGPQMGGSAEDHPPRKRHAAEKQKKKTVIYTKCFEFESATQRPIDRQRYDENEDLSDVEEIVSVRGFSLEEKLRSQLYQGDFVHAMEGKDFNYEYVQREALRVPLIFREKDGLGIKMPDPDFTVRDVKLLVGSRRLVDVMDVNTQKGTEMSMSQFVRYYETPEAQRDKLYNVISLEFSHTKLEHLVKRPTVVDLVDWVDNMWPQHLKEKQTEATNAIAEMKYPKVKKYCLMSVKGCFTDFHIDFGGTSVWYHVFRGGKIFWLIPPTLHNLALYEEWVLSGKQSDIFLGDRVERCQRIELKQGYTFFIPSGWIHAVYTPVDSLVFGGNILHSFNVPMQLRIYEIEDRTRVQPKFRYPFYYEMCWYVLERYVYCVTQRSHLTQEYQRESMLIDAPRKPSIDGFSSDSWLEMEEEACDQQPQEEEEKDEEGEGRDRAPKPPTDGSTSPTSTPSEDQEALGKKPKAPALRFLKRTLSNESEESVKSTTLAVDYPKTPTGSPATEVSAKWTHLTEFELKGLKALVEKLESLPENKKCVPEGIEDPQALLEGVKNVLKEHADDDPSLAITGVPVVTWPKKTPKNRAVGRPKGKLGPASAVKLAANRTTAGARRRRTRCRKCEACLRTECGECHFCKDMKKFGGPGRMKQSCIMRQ
Chain of JMJD2C (Q9H3R0 2-372): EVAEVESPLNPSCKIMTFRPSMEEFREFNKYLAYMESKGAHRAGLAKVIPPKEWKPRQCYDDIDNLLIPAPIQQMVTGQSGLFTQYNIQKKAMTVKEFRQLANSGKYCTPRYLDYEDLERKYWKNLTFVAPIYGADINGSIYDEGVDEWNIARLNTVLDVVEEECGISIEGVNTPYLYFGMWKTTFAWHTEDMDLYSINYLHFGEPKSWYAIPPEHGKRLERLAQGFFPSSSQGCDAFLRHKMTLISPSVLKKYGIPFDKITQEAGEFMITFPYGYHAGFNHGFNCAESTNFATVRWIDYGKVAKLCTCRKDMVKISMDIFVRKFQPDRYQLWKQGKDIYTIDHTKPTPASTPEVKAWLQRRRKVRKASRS

## Cc1cc(C#N)ccc1COc1ccnn1-c1cc(C(=O)O)ccn1 [Example 125, 2-[5-[(4-cyano-2-methylphenyl)methoxy]pyrazol-1-yl]pyridine-4-carboxylic acid]
[1]
  IC50: < 100 nM
[2]
  IC50: < 100 nM
[3]
  IC50: 100 to 1000 nM
[4]; Homo sapiens
  IC50: 1000 to 10000 nM

## O=C(O)c1ccnc(-n2nccc2OCc2ccc(Cl)c(OCC3CC3)c2)c1 [Example 140, 2-[5-[[4-chloro-3-(cyclopropylmethoxy)phenyl]methoxy]pyrazol-1-yl]pyridine-4-carboxylic acid]
[1]
  IC50: 100 to 1000 nM
[2]
  IC50: 100 to 1000 nM
[5]
  IC50: 1000 to 10000 nM
[6]
  IC50: 100 to 1000 nM

## Cn1ncc2ccc(COc3ccnn3-c3cc(C(=O)O)ccn3)cc21 [Example 50, 2-{5-[(1-methyl-1H-indazol-6-yl)methoxy]-1H-pyrazol-1-yl}pyridine-4-carboxylic acid]
[1]
  IC50: < 100 nM
[2]
  IC50: < 100 nM
[5]
  IC50: 100 to 1000 nM
[4]; Homo sapiens
  IC50: > 10000 nM

## O=C(O)c1ccnc(-n2nccc2OCc2ccc(F)cc2OCc2ccc(F)cc2)c1 [Example 118, 2-[5-[[4-fluoro-2-[(4-fluorophenyl)methoxy]phenyl]methoxy]pyrazol-1-yl]pyridine-4-carboxylic acid]
[1]
  IC50: < 100 nM
[2]
  IC50: < 100 nM
[3]
  IC50: 100 to 1000 nM
[5]
  IC50: 1000 to 10000 nM
[6]
  IC50: 100 to 1000 nM

## O=C(O)c1ccnc(-n2nc(-c3ccc(Cl)cc3)cc2O)c1 [Example 158, 2-[3-(4-chlorophenyl)-5-hydroxypyrazol-1-yl]pyridine-4-carboxylic acid]
[1]
  IC50: 1000 to 10000 nM
[2]
  IC50: 1000 to 10000 nM
[3]
  IC50: 1000 to 10000 nM
[5]
  IC50: < 100 nM
[6]
  IC50: 1000 to 10000 nM

## CC(C)COc1cc(Cl)ccc1COc1ccnn1-c1cc(C(=O)O)ccn1 [Example 112, 2-[5-[[4-chloro-2-(2-methylpropoxy)phenyl]methoxy]pyrazol-1-yl]pyridine-4-carboxylic acid]
[1]
  IC50: 100 to 1000 nM
[2]
  IC50: 100 to 1000 nM
[3]
  IC50: 1000 to 10000 nM
[5]
  IC50: 1000 to 10000 nM
[6]
  IC50: 1000 to 10000 nM

## O=C(O)c1ccnc(-n2nccc2OCc2ccc(Cl)c(Cl)c2)c1 [Example 87, 2-[5-[(3,4-dichlorophenyl)methoxy]pyrazol-1-yl]pyridine-4-carboxylic acid]
[1]
  IC50: < 100 nM
[2]
  IC50: < 100 nM
[3]
  IC50: 100 to 1000 nM
[4]; Homo sapiens
  IC50: 100 to 1000 nM

## CC(c1ccccc1)c1cc(O)n(-c2cc(C(=O)O)ccn2)n1 (stereo not shown) [Example 162, 2-[5-hydroxy-3-(1-phenylethyl)pyrazol-1-yl]pyridine-4-carboxylic acid]
[2]
  IC50: 1000 to 10000 nM
[3]
  IC50: 1000 to 10000 nM
[5]
  IC50: < 100 nM
[6]
  IC50: > 10000 nM

## O=C(O)c1ccnc(-n2nccc2OCc2cccc(Br)c2)c1 [Example 72, 2-{5-[(3-bromobenzyl)oxy]-1H-pyrazol-1-yl}pyridine-4-carboxylic acid]
[1]
  IC50: < 100 nM
[2]
  IC50: < 100 nM
[3]
  IC50: < 100 nM
[4]; Homo sapiens
  IC50: 1000 to 10000 nM

## Cc1ccc(COc2ccnn2-c2cc(C(=O)O)ccn2)c(Cl)c1 [Example 130, 2-[5-[(2-chloro-4-methylphenyl)methoxy]pyrazol-1-yl]pyridine-4-carboxylic acid]
[1]
  IC50: 100 to 1000 nM
[2]
  IC50: 100 to 1000 nM
[3]
  IC50: 1000 to 10000 nM
[5]
  IC50: 1000 to 10000 nM
[6]
  IC50: 100 to 1000 nM

## O=C(O)c1ccnc(-n2nccc2OCc2ccc(F)c(OCc3ccc(F)cc3)c2)c1 [Example 139, 2-[5-[[4-fluoro-3-[(4-fluorophenyl)methoxy]phenyl]methoxy]pyrazol-1-yl]pyridine-4-carboxylic acid]
[4]; Homo sapiens
  IC50: 100 to 1000 nM

## Oc1cc(Cc2ccc(Cl)cc2)nn1-c1cc(-c2nnn[nH]2)ccn1 [Example 169, 5-[(4-chlorophenyl)methyl]-2-[4-(1H-tetrazol-5-yl)pyridin-2-yl]pyrazol-3-ol]
[2]
  IC50: 1000 to 10000 nM
[3]
  IC50: 1000 to 10000 nM
[5]
  IC50: < 100 nM
[6]
  IC50: > 10000 nM

## O=C(O)c1ccnc(-n2nc(-c3cccc(Cl)c3)cc2O)c1 [Example 159, 2-[3-(3-chlorophenyl)-5-hydroxypyrazol-1-yl]pyridine-4-carboxylic acid]
[1]
  IC50: 1000 to 10000 nM
[2]
  IC50: 1000 to 10000 nM
[3]
  IC50: 1000 to 10000 nM
[5]
  IC50: < 100 nM
[6]
  IC50: > 10000 nM

## CCCCOc1cc(Cl)ccc1COc1ccnn1-c1cc(C(=O)O)ccn1 [Example 111, 2-[5-[(2-butoxy-4-chlorophenyl)methoxy]pyrazol-1-yl]pyridine-4-carboxylic acid]
[1]
  IC50: 100 to 1000 nM
[2]
  IC50: 100 to 1000 nM
[3]
  IC50: 1000 to 10000 nM
[5]
  IC50: 1000 to 10000 nM
[6]
  IC50: 1000 to 10000 nM

## methyl 2-[5-(benzyloxy)-1H-pyrazol-1-yl]pyridine-4-carboxylate [Example 62]
[4]
  IC50: 1000 to 10000 nM

## O=C(O)c1ccnc(-n2nc(Cc3ccccc3Cl)cc2O)c1 [Example 163, 2-[3-[(2-chlorophenyl)methyl]-5-hydroxypyrazol-1-yl]pyridine-4-carboxylic acid]
[2]
  IC50: 1000 to 10000 nM
[3]
  IC50: 1000 to 10000 nM
[5]
  IC50: < 100 nM
[6]
  IC50: > 10000 nM

## O=C(O)c1ccnc(-n2nc(Cc3ccc(Cl)cc3)cc2O)c1 [Example 165, 2-[3-[(4-chlorophenyl)methyl]-5-hydroxypyrazol-1-yl]pyridine-4-carboxylic acid]
[2]
  IC50: 100 to 1000 nM
[3]
  IC50: 1000 to 10000 nM
[5]
  IC50: < 100 nM
[6]
  IC50: > 10000 nM

## O=C(O)c1ccnc(-n2nccc2OCc2ccc(Cl)c(F)c2)c1 [Example 74, 2-{5-[(4-chloro-3-fluorobenzyl)oxy]-1H-pyrazol-1-yl}pyridine-4-carboxylic acid]
[1]
  IC50: < 100 nM
[2]
  IC50: < 100 nM
[3]
  IC50: < 100 nM
[4]; Homo sapiens
  IC50: 1000 to 10000 nM

## O=C(O)c1ccnc(-n2nccc2OCc2ccc(Br)cc2)c1 [Example 57, 2-{5-[(4-bromobenzyl)oxy]-1H-pyrazol-1-yl}pyridine-4-carboxylic acid]
[1]
  IC50: < 100 nM
[2]
  IC50: < 100 nM
[3]
  IC50: < 100 nM
[4]; Homo sapiens
  IC50: 100 to 1000 nM

## Cc1ccc(COc2ccnn2-c2cc(C(=O)O)ccn2)c(C)c1 [Example 132, 2-[5-[(2,4-dimethylphenyl)methoxy]pyrazol-1-yl]pyridine-4-carboxylic acid]
[1]
  IC50: < 100 nM
[2]
  IC50: < 100 nM
[3]
  IC50: 100 to 1000 nM
[5]
  IC50: 1000 to 10000 nM
[6]
  IC50: 100 to 1000 nM

## O=C(O)c1ccnc(-n2nc(C3CCCC3)cc2O)c1 [Example 160, 2-(3-cyclopentyl-5-hydroxypyrazol-1-yl)pyridine-4-carboxylic acid]
[1]
  IC50: 1000 to 10000 nM
[2]
  IC50: 100 to 1000 nM
[3]
  IC50: 1000 to 10000 nM
[5]
  IC50: < 100 nM
[6]
  IC50: > 10000 nM

## O=C(O)c1ccnc(-n2nc(C3CC3)cc2O)c1 [Example 2, 2-(3-cyclopropyl-5-hydroxy-1H-pyrazol-1-yl)isonicotinic acid]
[1]
  IC50: < 100 nM
[2]
  IC50: < 100 nM
[3]
  IC50: 100 to 1000 nM
[5]
  IC50: < 100 nM
[6]
  IC50: 100 to 1000 nM

## CCOc1cc(Cl)ccc1COc1ccnn1-c1cc(C(=O)O)ccn1 [Example 115, 2-[5-[(4-chloro-2-ethoxyphenyl)methoxy]pyrazol-1-yl]pyridine-4-carboxylic acid]
[1]
  IC50: < 100 nM
[2]
  IC50: < 100 nM
[3]
  IC50: 100 to 1000 nM
[4]; Homo sapiens
  IC50: 100 to 1000 nM

## O=C(O)c1ccnc(-n2nc(Cc3cccc(Cl)c3)cc2O)c1 [Example 164, 2-[3-[(3-chlorophenyl)methyl]-5-hydroxypyrazol-1-yl]pyridine-4-carboxylic acid]
[2]
  IC50: 1000 to 10000 nM
[3]
  IC50: 1000 to 10000 nM
[5]
  IC50: < 100 nM
[6]
  IC50: > 10000 nM

## CC1(C)Cc2cccc(COc3ccnn3-c3cc(C(=O)O)ccn3)c2O1 [Example 124, 2-[5-[(2,2-dimethyl-3H-1-benzofuran-7-yl)methoxy]pyrazol-1-yl]pyridine-4-carboxylic acid]
[1]
  IC50: 100 to 1000 nM
[2]
  IC50: < 100 nM
[4]; Homo sapiens
  IC50: > 10000 nM

## CCc1cc(Cl)ccc1COc1ccnn1-c1cc(C(=O)O)ccn1 [Example 127, 2-[5-[(4-chloro-2-ethylphenyl)methoxy]pyrazol-1-yl]pyridine-4-carboxylic acid]
[1]
  IC50: 100 to 1000 nM
[2]
  IC50: 100 to 1000 nM
[3]
  IC50: 1000 to 10000 nM
[4]; Homo sapiens
  IC50: 1000 to 10000 nM
